Measurements published in US9452185B2, “Mesenchymal stem cells and supports for tissue regeneration, repair and reconstruction” (THE TEXAS A&M UNIVERSITY SYSTEM, priority 2009, dated 2016).
“Also recorded” adds a separate entry of the source.

How the values were obtained:
[1] = system: calvarial defects; assay: Histology of 50-day calvaria (H&E, tetracycline tracing, blood vessels); format: in vivo, nude mice
Protocol: Histochemistry and immunocytochemistry. For β-catenin localization studies, hMSCs were stained with a cy-3 conjugated anti-β-catenin antibody and nuclei were counterstained with pico-green dye. Specimens were processed as paraffin blocks and 8 longitudinal sections were prepared, deparaffinized and rehydrated, then stained with hematoxylin and eosin. For immunocytochemistry, sections were probed with an anti-human β-2-microglobulin antibody. An upright fluorescent microscope fitted with a high performance camera (and image analysis software was employed for imaging. Tetracycline tracing of in vivo calcium deposition. The tetracycline was imaged using an upright fluorescent microscope fitted with a high performance camera and analyzed using software. Embedding, sectioning and mounting was carried out on non-decalcified material. Semi-quantitative blood vessel measurements. Calvaria were fixed, decalcified and sectioned in paraffin and stained with hematoxylin and eosin as described. Using NIS-Elements image analysis software, the surface area of blood vessels in a defined ROI was calculated and totaled. The values were expressed as the mean of total blood vessel area from 3 animals per group. […] Using NIS-Elements image analysis software, the surface area of blood vessels in the 2D ROI was calculated for each section and totaled. […]

[2] = system: calvarial defects; assay: Calvarial defect repair, 50 days (x-ray radio-opacity); format: in vivo, nude mice; details: for repair of cranial lesions (radio-opacity ratio lesioned/contralateral): day 50, 1×10^6 pretreated hMSCs in plasma, further doses day 14, 28, 42
Protocol: Calvarial lesions. MSCs were cultured in the presence of osteogenic base media containing the appropriate inhibitor or vehicle. After 8 days, they were suspended in human plasma and administered to nude mice that had received a circular lesion in the cranium. Subsequent doses of cells were administered by direct injection in plasma/thromboplastin mix.
X-ray imaging and quantification. Cranial bones were imaged by x-ray under anaesthesia. Digital images were be captured on a digital plate and processed on a phosphorimager reader and processed by volume analysis software.
Effects of GSKβ and PPARγ inhibition on repair of an induced cranial defect in mice. Given that BIO and GW accelerated osteogenic differentiation by human MSCs in vitro, experiments were conducted to test whether the treated hMSCs could repair a critical bone defect in vivo. Human MSCs were cultured in the presence of osteogenic medium lacking dex, but containing BIO (200 and 800 nM) or GW (1.0 and 10.0 μM). Calvarial lesions were generated in nude mice and 1×10^6 hMSCs, mixed with human plasma were applied followed by thromboplastin to initiate gelling. The scalp was sutured and the animals were allowed to heal. Initially, short-duration experiments were performed to monitor distribution of the hMSCs, and to ensure the cells had survived the implantation process. GFP-labeled hMSCs were administered and mice were sacrificed after 24 h. Upon histological analysis, a substantial number of GFP-labeled, healthy hMSCs had formed a thick layer over the injury and adjacent bone tissue (FIG. 24A, 24B). The hMSCs could be readily detected with an antibody for membrane localized human β-2 microglobulin (FIG. 24C, 24D). Robust antibody-detection of unmanipulated hMSCs, rather than lentiviral labeling was favored in long term experiments because very low passage hMSCs could be utilized, rather than genetically tagged preparations that had undergone a number of passages. Long term experiments were performed for 50 days with further doses of hMSCs administered at day 14, 28 and 42 by direct injection of a plasma:hMSC mixture under the scalp (FIG. 25A). At day 50, the crania were explanted and x-ray images of the calvarial lesions were taken. The digitized images were then analysed densitometrically to quantify the degree of bone accrual (FIG. 25B). The lesioned side was compared with the contralateral side and data were expressed as the ratio of radio-opacity on the lesioned side to the contralateral side. […] When the sections were stained with anti-β-2 microglobulin, isolated clusters of hMSCs from only control and GW groups were detected (FIGS. 27C and 27D).

[3] = system: hMSCs; assay: Membrane integrin expression by flow cytometric analysis; format: cell-based, human; design: CD49a x-mean / CD49b x-mean / CD49c x-mean / CD49e x-mean / CD51 x-mean / CD29 x-mean / CD36 x-mean / CD44 x-mean: unit not given here
Protocol: For immunophenotyping, MSCs were recovered by brief trypsinization and incubated with one or more fluorophore-tagged antibodies or respective isotype controls for 30 min in a phosphate-buffered saline (PBS) containing 2% (v/v) FBS. After about three washes, a minimum of 20,000 cells were analyzed on a flow cytometer and data processed using machine-compatible software. Antibodies against the following cell surface antigens were used, including CD11b (clone BEAR1), CD14 (RM052), CD19 (J3-119), CD29 (MAR4), CD34 (581), CD36 (FA6.152), CD44 ([…]-26), CD45 (J.33), CD49a (SR84), CD49b (Gi9), CD49c (C3 II.1), CD49e (IIA1), CD51 (23C6), CD73 (AD2), CD79a (HM47), CD90 (Thy-1/310), CD105 (IG2), CD146 (TEA1/34), CD166 (3[…] (Tu39).

## O=C(Nc1ccccc1)c1cc([N+](=O)[O-])ccc1Cl [GW9662, 2-chloro-5-nitro-N-phenyl-benzamide]
[1]; day 50
  new bone formation, histology: new bone formation was detected
[1]; day 50, blood vessels
  ability of MSCs to initiate angiogenesis at trauma sites: had not affected
[2]; MSCs treated with GW9662 applied to calvaria bone defect
  improvement in healing compared with controls: 2-3 fold
[2]; after 50 days of repeated cell administration
  lesion healing: about 60%
[2]; listed as GW
  repair of cranial lesions (radio-opacity ratio lesioned/contralateral): significantly improved; also recorded: profoundly improved healing
[3]; GW-treatment
  CD29 % pos: 99.97%
  CD29 x-mean: 135
  CD36 % pos: 0.68%
  CD36 x-mean: 1.89
  CD44 % pos: 96.24%
  CD44 x-mean: 7.84
  CD49a % pos: 87.07%
  CD49a x-mean: 3.28
  CD49b % pos: 43.09%
  CD49b x-mean: 5.69
  CD49c % pos: 99.93%
  CD49c x-mean: 21.80
  CD49e % pos: 99.99%
  CD49e x-mean: 81.50
  CD51 % pos: 99.92%
  CD51 x-mean: 15.30
[3]; irrespective of GW9662 treatment
  CD36 on the surface of hMSCs: No substantial expression

## O=C1Nc2cc(Br)ccc2/C1=C1/Nc2ccccc2/C1=N\O [BIO, bromo-indirubin-3′-mono-oxime]
[2]
  repair of cranial lesions (radio-opacity ratio lesioned/contralateral): no significant sign of bone repair
